# Assay results from patent US20080102497A1, “ENZYMATIC HYDROLYSIS OF STARCH” (priority 2006, published 2008).
# Where “and” joins values, the source holds several entries; their conditions need not be identical. Identical values can stand only once. Like-named read-outs stand apart in the source and are kept apart here.
# Tests used:
# [1] = target: α-amylase from Bacillus licheniformis (Bacillus licheniformis, UniProt P06278); assay: hydrolysis of raw corn starch, reducing sugar by DNSA; type: biochemical; settings: for Relative Activity: raw corn starch, pH 5.3, 37° C., 20 min
# Sequence of α-amylase from Bacillus licheniformis (P06278 30-512): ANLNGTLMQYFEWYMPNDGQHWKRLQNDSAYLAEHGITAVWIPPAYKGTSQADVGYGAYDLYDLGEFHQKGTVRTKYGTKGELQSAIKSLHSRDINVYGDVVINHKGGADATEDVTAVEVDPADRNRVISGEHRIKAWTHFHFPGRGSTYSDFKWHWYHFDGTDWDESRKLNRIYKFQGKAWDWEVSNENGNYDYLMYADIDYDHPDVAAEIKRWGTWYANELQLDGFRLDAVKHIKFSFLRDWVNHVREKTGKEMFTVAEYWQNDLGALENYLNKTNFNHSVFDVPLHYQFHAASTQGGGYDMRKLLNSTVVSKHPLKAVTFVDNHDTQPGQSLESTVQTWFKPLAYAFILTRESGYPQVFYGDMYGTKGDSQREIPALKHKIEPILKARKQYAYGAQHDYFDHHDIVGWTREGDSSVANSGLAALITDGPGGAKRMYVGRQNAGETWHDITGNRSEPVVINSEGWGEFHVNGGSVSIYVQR
# [2] = target: α-amylase from Bacillus amyloliquefaciens (Bacillus amyloliquefaciens, UniProt P00692); assay: hydrolysis of cooked dent corn starch; type: biochemical; settings: 0.1 mM Mn^++; cooked dent corn starch 0.5%; pH 5.2; 37° C., 10 min
# Sequence of α-amylase from Bacillus amyloliquefaciens (P00692 32-514): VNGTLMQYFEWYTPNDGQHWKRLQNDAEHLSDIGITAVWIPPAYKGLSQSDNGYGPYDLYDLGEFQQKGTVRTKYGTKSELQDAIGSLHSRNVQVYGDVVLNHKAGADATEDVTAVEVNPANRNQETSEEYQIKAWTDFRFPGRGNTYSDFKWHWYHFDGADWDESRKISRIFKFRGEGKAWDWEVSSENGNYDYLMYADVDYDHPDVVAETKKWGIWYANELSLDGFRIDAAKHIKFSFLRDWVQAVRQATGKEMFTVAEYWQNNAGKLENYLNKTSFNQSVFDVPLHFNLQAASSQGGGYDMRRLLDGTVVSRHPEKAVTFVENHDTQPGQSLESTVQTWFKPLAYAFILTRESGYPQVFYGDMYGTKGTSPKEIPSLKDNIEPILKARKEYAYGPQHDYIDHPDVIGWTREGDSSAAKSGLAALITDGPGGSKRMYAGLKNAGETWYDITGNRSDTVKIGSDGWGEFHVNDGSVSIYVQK
# Protocol: (§1) The separate reaction mixtures were incubated at 37° C. for 10 minutes. The control reaction mixtures contained enzyme, buffer, and starch but no manganese ion. The starch hydrolysis reaction was stopped by combining the reaction mixture with a solution containing DNSA and heating for 30 min at 85° C. The absorbance of the control and test samples was measured at 562 nm to monitor the amount of reducing sugar in each sample.
# [3] = target: T1, α-amylase from bovine pancreas (Bos taurus, UniProt Q3MHH8); assay: hydrolysis of raw corn starch at pH 5.3 or 7.0, reducing sugar by DNSA; type: biochemical; settings: for Relative Activity: 37° C., 20 min
# T1 construct: The α-amylase from bovine pancreas; from tissue; host or cells: bovine pancreas
# T1 sequence (Q3MHH8 16-511): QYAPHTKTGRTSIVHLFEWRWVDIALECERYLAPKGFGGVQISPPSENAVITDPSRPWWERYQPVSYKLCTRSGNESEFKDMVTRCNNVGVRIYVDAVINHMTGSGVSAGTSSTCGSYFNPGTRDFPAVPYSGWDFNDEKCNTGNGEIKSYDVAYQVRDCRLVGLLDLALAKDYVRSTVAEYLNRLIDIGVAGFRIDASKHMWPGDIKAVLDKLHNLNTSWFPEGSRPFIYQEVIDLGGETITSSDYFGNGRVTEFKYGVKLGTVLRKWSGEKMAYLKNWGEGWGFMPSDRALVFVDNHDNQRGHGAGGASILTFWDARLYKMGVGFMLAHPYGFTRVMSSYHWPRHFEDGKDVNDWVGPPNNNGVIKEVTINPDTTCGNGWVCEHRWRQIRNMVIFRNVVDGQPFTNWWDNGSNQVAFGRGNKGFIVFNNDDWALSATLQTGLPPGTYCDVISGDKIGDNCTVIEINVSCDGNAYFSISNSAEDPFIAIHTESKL
# [4] = target: β-amylase from barley (Hordeum vulgare, UniProt P16098); assay: pH effect on hydrolysis of cooked dent corn starch; type: biochemical; settings: 1 mM Mn^++; for Relative Activity: cooked dent corn starch 0.5%, 37° C., 10 min, control at pH 5 = 100
# Sequence of β-amylase from barley (P16098 whole entry): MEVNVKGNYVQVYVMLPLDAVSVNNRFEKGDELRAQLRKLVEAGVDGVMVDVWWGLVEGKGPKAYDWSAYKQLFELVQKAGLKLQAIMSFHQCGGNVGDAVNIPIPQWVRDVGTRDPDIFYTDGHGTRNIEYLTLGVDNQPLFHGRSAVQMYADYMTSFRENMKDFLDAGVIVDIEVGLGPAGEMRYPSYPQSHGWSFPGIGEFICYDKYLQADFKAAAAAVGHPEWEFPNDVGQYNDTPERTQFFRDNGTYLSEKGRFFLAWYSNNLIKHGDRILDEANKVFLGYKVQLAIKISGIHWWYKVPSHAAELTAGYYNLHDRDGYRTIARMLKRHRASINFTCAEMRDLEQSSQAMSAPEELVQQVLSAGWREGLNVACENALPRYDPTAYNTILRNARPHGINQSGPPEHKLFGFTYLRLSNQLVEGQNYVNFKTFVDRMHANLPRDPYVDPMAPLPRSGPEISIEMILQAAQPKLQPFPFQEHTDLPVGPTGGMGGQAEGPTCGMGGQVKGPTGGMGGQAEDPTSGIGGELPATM
# Protocol: The separate reaction mixtures were then incubated at 37° C. for 10 minutes. The control reaction mixture contained enzyme, buffer, and starch but no manganese ion. The starch hydrolysis reaction was stopped by combining the reaction mixture with a solution containing DNSA and heating for 30 min at 85° C. The absorbance of the control and test samples was measured at 562 nm to monitor the amount of reducing sugar in each sample.
# [5] = test system: glucoamylase from Rhizopus sp.; assay: pH effect on hydrolysis of raw corn starch; type: biochemical; settings: for Relative Activity: 37° C., 20 min, control at pH 4 = 100
# Protocol: Enzyme solutions of the glucoamylase from Rhizopus sp. Were prepared in various pH buffers having a pH of 3, 4, 5, 6, 7, or 8. Thereafter, 40 μl of the buffered enzyme solution and a stock solution containing Mn^++ were added to 6 samples containing 15 mg raw corn starch to provide a reaction mixture containing 1.0 mM Mn^++. The reaction mixtures were incubated at 37° C. for 20 minutes.
# [6] = test system: enzyme mixture of purified glucoamylase from mushroom and purified α-amylase from barley; assay: hydrolysis of raw corn starch by enzyme mixture, reducing sugar by DNSA; type: biochemical; settings: summary of Table 2
# Protocol: Enzyme mixture was also pre-incubated with 10 mM Fe^++, Cu^++, Ca^++, Mg^++, or disodium ethylenediamine-tetraacetic acid (EDTA). Thereafter, 40 μl of each pre-incubation solution was added to 15 mg raw corn starch, and the reaction mixture incubated at 37° C. for 20 minutes. The control reaction mixture contained substrate, enzyme, and buffer but no additional metal ions. The starch hydrolysis reaction was stopped by combining the reaction mixture with a solution containing 3,5 dinitrosalicylic acid (DNSA) and heating for 30 min at 85° C. The absorbance of the control and test samples was measured at 562 nm to monitor the amount of reducing sugar in each sample.
# [7] = target: glucoamylase from Aspergillus Niger (Aspergillus niger, UniProt P69328); settings: for Relative Activity: raw corn starch, pH 5.3, 37° C., 20 min
# Sequence of glucoamylase from Aspergillus Niger (P69328 25-640): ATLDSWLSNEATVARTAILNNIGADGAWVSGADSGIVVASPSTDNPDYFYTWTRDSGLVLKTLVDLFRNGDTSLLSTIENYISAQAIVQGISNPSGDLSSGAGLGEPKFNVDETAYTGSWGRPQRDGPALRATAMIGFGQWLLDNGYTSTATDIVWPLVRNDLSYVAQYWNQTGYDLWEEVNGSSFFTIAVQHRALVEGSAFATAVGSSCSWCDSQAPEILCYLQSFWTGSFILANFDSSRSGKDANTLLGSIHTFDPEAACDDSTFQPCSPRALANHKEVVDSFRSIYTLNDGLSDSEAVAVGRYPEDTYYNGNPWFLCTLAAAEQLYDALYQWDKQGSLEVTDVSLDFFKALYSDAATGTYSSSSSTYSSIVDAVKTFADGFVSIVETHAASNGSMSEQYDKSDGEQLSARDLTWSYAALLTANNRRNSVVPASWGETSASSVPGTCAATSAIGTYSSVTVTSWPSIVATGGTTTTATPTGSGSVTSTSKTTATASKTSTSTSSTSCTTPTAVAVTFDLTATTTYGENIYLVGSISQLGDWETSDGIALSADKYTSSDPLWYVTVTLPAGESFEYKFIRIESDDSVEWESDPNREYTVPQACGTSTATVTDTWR
# Protocol: Thereafter, 40 μl of each pre-incubation solution was added to 15 mg raw corn starch, and the reaction mixture incubated at 37° C. for 20 minutes. The control reaction mixture contained substrate, enzyme, and buffer but no manganese ion. The starch hydrolysis reaction was stopped by combining the reaction mixture with a solution containing DNSA and heating for 30 min at 85° C. The absorbance of the control and test samples was measured at 562 nm to monitor the amount of reducing sugar in each sample.
# [8] = target: T2, α-amylase from human saliva (Homo sapiens, UniProt P0DUB6); assay: hydrolysis of cooked dent corn starch; type: biochemical; settings: cooked dent corn starch 0.5%, pH 5.2, 37° C., 10 min
# T2 construct: the α-amylase from human saliva; from tissue; host or cells: human saliva
# T2 sequence (P0DUB6 16-511): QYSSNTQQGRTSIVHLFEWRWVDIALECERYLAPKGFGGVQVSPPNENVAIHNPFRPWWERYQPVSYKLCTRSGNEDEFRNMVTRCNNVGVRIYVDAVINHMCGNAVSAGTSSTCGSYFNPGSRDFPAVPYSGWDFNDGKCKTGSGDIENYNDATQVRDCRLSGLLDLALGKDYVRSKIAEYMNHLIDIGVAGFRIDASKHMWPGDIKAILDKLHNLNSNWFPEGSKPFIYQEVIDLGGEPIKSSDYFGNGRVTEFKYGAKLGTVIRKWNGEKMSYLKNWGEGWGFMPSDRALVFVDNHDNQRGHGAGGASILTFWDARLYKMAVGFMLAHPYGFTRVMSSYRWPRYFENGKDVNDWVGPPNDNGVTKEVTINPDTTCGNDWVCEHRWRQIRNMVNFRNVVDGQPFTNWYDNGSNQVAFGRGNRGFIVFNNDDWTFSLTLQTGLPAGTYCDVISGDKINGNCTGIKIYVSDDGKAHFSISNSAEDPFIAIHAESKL
# Protocol: as §1
smiles,measurement,setting,value
"[Mn+2] [Mn^++, manganese ions]",Relative Activity,[1]; 0.01 mM Mn^++,93.4%
same,Relative Activity,[1]; 0.1 mM Mn^++,104.6%
same,Relative Activity,[1]; 1 mM Mn^++,113.8%
same,effect on hydrolysis of raw corn starch (in words),[1]; summary of Table 4,enhances the hydrolysis of raw corn starch
same,Relative Activity,[2],121.0% and 120.4%
same,Relative Activity,"[3]; 0.01 mM Mn^++, pH 5.3 sodium acetate buffer",108.3%
same,Relative Activity,"[3]; 0.01 mM Mn^++, pH 7.0 potassium phosphate buffer",103.5%
same,Relative Activity,"[3]; 0.1 mM Mn^++, pH 5.3 sodium acetate buffer",125.0%
same,Relative Activity,"[3]; 0.1 mM Mn^++, pH 7.0 potassium phosphate buffer",103.5%
same,Relative Activity,"[3]; 1 mM Mn^++, pH 5.3 sodium acetate buffer",145.2%
same,Relative Activity,"[3]; 1 mM Mn^++, pH 7.0 potassium phosphate buffer",119.6%
same,Relative Activity,"[3]; 10 mM Mn^++, pH 5.3 sodium acetate buffer",139.9%
same,Relative Activity,"[3]; 10 mM Mn^++, pH 7.0 potassium phosphate buffer",95.7%
same,pH dependence of Mn^++ activation (in words),[3]; pH 5.3 vs 7.0,greater activation at a pH of 5.3 than at 7.0
same,pH range of greatest Mn^++ induced enhancement,"[4]; cooked dent corn starch, pH 3-8 tested",5.0-6.0
same,Relative Activity,[4]; pH 3,0%
same,Relative Activity,[4]; pH 4,105.8%
same,Relative Activity,[4]; pH 5,173.1%
same,Relative Activity,[4]; pH 6,176.9%
same,Relative Activity,[4]; pH 7,165.4%
same,Relative Activity,[4]; pH 8,74%
same,pH of greatest Mn^++-induced activation,"[5]; 1.0 mM Mn^++, pH 3-8 tested",5.0
same,Relative Activity,"[5]; pH 3, 1.0 mM Mn^++",98%
same,Relative Activity,"[5]; pH 4, 1.0 mM Mn^++",146.7%
same,Relative Activity,"[5]; pH 5, 1.0 mM Mn^++",148.6%
same,Relative Activity,"[5]; pH 6, 1.0 mM Mn^++",127.8%
same,Relative Activity,"[5]; pH 7, 1.0 mM Mn^++",103.1%
same,Relative Activity,"[5]; pH 8, 1.0 mM Mn^++",44.3%
same,effect on hydrolysis of raw corn starch (in words),[6],enhances the hydrolysis of raw corn starch
same,Relative Activity,[7]; 0.01 mM Mn^++,94.4%
same,Relative Activity,[7]; 0.1 mM Mn^++,111.2%
same,Relative Activity,[7]; 1 mM Mn^++,127.1%
same,Relative Activity,[7]; 10 mM Mn^++,160.6%
same,effect on hydrolysis of raw corn starch (in words),[7]; summary of Table 4,enhances the hydrolysis of raw corn starch
same,Relative Activity,[8]; 0.01 mM Mn^++,120.2%
same,Relative Activity,[8]; 0.1 mM Mn^++,147.5%
same,Relative Activity,[8]; 1 mM Mn^++,224.4%
same,Relative Activity,[8]; 10 mM Mn^++,275.6%
